From BindingDB's records for patent US10106535 (Chdi Foundation, 2018)

Target: Histone deacetylase 4 (Homo sapiens, UniProt P56524)
Test: Biochemical HDAC-4 Assay
Method: 5 μl of each solution of 1:20 diluted compound from above is transferred to a clear bottomed, black, 384-well assay plate using the Bravo or the Janus (384-well MDT head from Perkin Elmer). Using a 16-channel Matrix multi-channel pipette, 35 μl of the working solution of HDAC4 catalytic domain enzyme (0.2 μg/ml in assay buffer) is transferred to the assay plate. The assay is then started by adding 10 μl of 5× (50 μM) substrate to the assay plates using either the Bravo, Janus or 16-channel Matrix multi-channel pipette. The assay plate is then shaken for two minutes on an orbital shaker at 900 rpm (rotations per minute). Next the plate is incubated for 15 minutes at 37° C. The reaction is stopped by adding 25 μl of 3× (30 μM) developer/stop solution to the assay plates using either the Bravo, Janus or a 16-channel Matrix multi-channel pipette. Assay plates are then shaken for 5 minutes on an orbital shaker at 1200 rpm. Next, the assay plates are incubated at 37° C. for 1 hour in a tissue culture incubator. Finally, the fluorescence is measured (Excitation: 355 nm, Emission: 460 nm) using PerkinElmer EnVision in top read mode.

Chain of Histone deacetylase 4 (P56524 whole entry): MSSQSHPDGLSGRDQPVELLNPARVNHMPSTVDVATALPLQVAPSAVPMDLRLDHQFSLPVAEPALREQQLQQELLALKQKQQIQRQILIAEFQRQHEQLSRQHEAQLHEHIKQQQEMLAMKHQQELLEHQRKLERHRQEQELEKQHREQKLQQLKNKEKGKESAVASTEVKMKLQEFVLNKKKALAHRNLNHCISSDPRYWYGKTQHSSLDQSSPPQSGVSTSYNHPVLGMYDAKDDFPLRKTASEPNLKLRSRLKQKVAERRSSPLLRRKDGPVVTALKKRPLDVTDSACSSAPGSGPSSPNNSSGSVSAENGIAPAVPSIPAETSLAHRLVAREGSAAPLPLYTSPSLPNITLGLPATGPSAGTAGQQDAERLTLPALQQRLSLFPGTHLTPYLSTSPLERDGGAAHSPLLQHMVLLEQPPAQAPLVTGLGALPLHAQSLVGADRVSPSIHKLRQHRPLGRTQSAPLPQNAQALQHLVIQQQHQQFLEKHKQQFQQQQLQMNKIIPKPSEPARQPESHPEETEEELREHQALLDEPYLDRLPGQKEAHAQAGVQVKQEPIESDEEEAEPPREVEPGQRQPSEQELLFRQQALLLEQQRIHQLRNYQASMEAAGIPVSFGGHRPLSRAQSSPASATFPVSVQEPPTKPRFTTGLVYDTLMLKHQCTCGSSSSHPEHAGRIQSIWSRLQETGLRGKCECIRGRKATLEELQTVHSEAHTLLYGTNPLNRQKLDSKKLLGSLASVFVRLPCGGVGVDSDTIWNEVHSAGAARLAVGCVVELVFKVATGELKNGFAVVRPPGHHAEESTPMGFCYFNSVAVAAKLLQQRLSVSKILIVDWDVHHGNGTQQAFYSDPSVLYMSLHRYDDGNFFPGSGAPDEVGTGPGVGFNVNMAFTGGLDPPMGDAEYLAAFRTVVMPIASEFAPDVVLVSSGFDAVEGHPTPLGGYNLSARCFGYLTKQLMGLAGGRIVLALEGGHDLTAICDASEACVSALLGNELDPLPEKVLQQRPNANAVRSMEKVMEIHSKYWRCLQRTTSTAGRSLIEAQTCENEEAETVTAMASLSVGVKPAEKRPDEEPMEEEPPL

In the case of `O=C(NO)C1C=CCC1c1ccccc1` (stereo unspecified) [US10106535, Example 30], the IC50 is reported as 12.3 µM.
